Test results reported in patent publication US4831170A, “Pharmaceutically active phospino-hydrocarbon-group VIII-metal complexes, antitumor compositions containing these complexes, and a process for preparing said compounds or antitumor compositions” (priority 1985, dated 1989).
“And” between values parts separate entries of the source, which are not always exact repeats. Equal values may be shown once.

What was measured:
B16 Melanoma = assay: Antitumor activity against B16 Melanoma in BDF1 mice; type: in vivo; details: for B 16 Dose producing the maximum % T/C: administered ip, days 1-9; for B 16 Maximum % T/C: median survival time vs saline control, ip, daily days 1-9, active if ≥125, figures separated by slashes are from separate experiments
Method: Several of the metal complexes were additionally evaluated for antitumor activity against B16 Melanoma. BDF1 mice, 10 per group, were inoculated intraperitoneally with 0.5 ml of a 10 percent (w:v) brei of B16 Melanoma. Intraperitoneal treatment with the metal complexes was initiated one day after implant and continued daily for a total of nine days. From 4 to 5 doses were tested for each compound under study. A saline treated control group and cisplatin treated groups were included in each experiment. The mice were observed daily for survivors and the experiments terminated after 60 days. […] The median survival time of the drug treated mice relative to that of the controls (% T/C) was used as a measure of antitumor activity.
(§1) Occasionally, 5% dextrose in water or 10% DMSO in 0.9% NaCl was used. The compounds were prepared for in vivo treatment by dissolving or suspending, with the addition of minimal amounts of Tween 80, in water.

P388 murine leukemia = assay: Antitumor activity against P388 murine leukemia in CDF1 mice; type: in vivo; details: 1 x on day 1; for P 388 Dose producing the maximum % T/C: administered ip; for P 388 Maximum % T/C: median survival time treated/saline control x 100, ip, active if ≥125
Method: (§2) All of the metal complexes were tested for antitumor activity against P388 murine leukemia. Selected compounds were also tested for antitumor activity against L1210 murine leukemia and a subline of L1210 murine leukemia resistant to cisplatin (L1210:DDP). CDF1 mice weighing 20 grams were inoculated intraperitoneally with 10^6 ascites cells of P388 leukemia, L1210 leukemia or L1210:DDP leukemia, depending on the test system being used. Drug administration was initiated the day following tumor implantation in all test systems. The complexes were administered at various dose levels by intraperitoneal injection. Groups of four to six mice were used for each dose level and they were treated with the complex on day one only. A group of ten saline treated control mice was included in each experiment. Cisplatin treated groups were included as a positive control in each experiment. The mice were weighed before treatment and again on day five or six and the average weight change used as a measure of toxicity. The animals were observed daily for mortality and the experiments terminated after 30 days. Antitumor activity was determined based on % T/C, which is the ratio of the median survival time of the drug treated group to the median survival time of the saline treated control group times 100. The saline treated mice usually have a median survival time of 9 days with P388 leukemia and 7 days with L1210 and L1210/DDP leukemia. A complex is considered active if it produces a % T/C of ≥125.
(§3) Tables II and IIa contain summaries of the evaluations of the compounds for antitumor activity against the murine leukemias. Listed for each compound is the maximum % T/C achieved and the dose producing that effect.
as §1, with “For the in vitro cytotoxicity studies the drugs were dissolved or suspended, depending on their solubility, in 0.9% NaCl solution. Occasionally,” for “Occasionally,”

L1210 murine leukemia = assay: Antitumor activity against L1210 murine leukemia in CDF1 mice; type: in vivo; details: day 1; for L1210 Dose producing the maximum % T/C: administered ip; for L1210 Max. % T/C: median survival time treated/saline control x 100, ip, active if ≥125
Method: as §2, §3
as §1, with “For the in vitro cytotoxicity studies the drugs were dissolved or suspended, depending on their solubility, in 0.9% NaCl solution. Occasionally,” for “Occasionally,”

[1] = system: L1210 murine leukemia resistant to cisplatin (L1210:DDP); assay: Antitumor activity against cisplatin-resistant L1210 murine leukemia (L1210/DDP) in CDF1 mice; type: in vivo; details: cisplatin-resistant subline, day 1; for L1210/DDP Dose producing the maximum % T/C: administered ip; for L1210/DDP Max. % T/C: done concomitantly with L1210 test, ip, active if ≥125
Method: as §2, §3
as §1, with “For the in vitro cytotoxicity studies the drugs were dissolved or suspended, depending on their solubility, in 0.9% NaCl solution. Occasionally,” for “Occasionally,”

[2] = system: B16-F10 murine melanoma cells; assay: In vitro cytotoxicity, B16-F10 murine melanoma cells (72 h, crystal violet); type: cell-based
Method: (§4) Logarithmically growing cells were harvested by mild trypsinization and 4000 cells were added to each well of a 96-well microtiter plate (Costar). […] The cells were then treated with a metal complex or cisplatin and incubated for 72 hours. The plates were inverted and shaken to remove media, drug and detached cells. […] The fixative was removed, the plates air dried, stained with 0.0075% crystal violet for 15 minutes, washed twice and air dried. The stain was solubilized with 0.2 ml of 0.1 M AcOH/EtOH (1:1) and optical densities determined using a Dynatech MR600 microtiter plate reader. […] The compounds were prepared for in vivo treatment by dissolving or suspending, with the addition of minimal amounts of Tween 80, in water.

[3] = system: HCT-116 human colon carcinoma cells; assay: In vitro cytotoxicity, HCT-116 human colon carcinoma cells (72 h, crystal violet); type: cell-based; details: HCT-116 cells
Method: as §4

Compound | B 16 Dose producing the maximum % T/C (B16 Melanoma) [mg/kg/inj.] | B 16 Maximum % T/C (B16 Melanoma) | P 388 Dose producing the maximum % T/C (P388 murine leukemia) [mg/kg] | P 388 Maximum % T/C (P388 murine leukemia) [% T/C] | L1210 Dose producing the maximum % T/C (L1210 murine leukemia) | L1210 Max. % T/C (L1210 murine leukemia) [% T/C] | L1210/DDP Dose producing the maximum % T/C [1] [mg/kg] | L1210/DDP Max. % T/C [1] [% T/C] | IC 50 (concentration which inhibits cell growth by 50%), B 16 [2] [µg/mL] | IC 50 (concentration which inhibits cell growth by 50%), HCT 116 [3] [µg/mL]
O=S(=O)([O-])C(F)(F)F.[Rh+].c1ccc(P(CCP(c2ccccc2)c2ccccc2)c2ccccc2)cc1.c1ccc(P(CCP(c2ccccc2)c2ccccc2)c2ccccc2)cc1 [TNO 302, Bis[1,2-bis(diphenylphosphino)ethane]rhodium(I) triflate] | 3.2 | 150 % T/C and 126 % T/C | 4 | 153 | – | – | – | – | – | –
[O-][Cl+3]([O-])([O-])[O-].[Rh+].c1ccc(P(CCP(c2ccccc2)c2ccccc2)c2ccccc2)cc1.c1ccc(P(CCP(c2ccccc2)c2ccccc2)c2ccccc2)cc1 [TNO 316, Bis[1,2-bis(diphenylphosphino)ethane]rhodium(I) perchlorate] | 16 | 131 % T/C | 12.5 | 150 | 160 mg/kg | 133 | 120 | 157 | – | –
O=[N+]([O-])[O-].O=[N+]([O-])[O-].[Pd+2].c1ccc(P(CCP(c2ccccc2)c2ccccc2)c2ccccc2)cc1.c1ccc(P(CCP(c2ccccc2)c2ccccc2)c2ccccc2)cc1 [TNO 345, Bis[1,2-bis(diphenylphosphino)ethane]palladium(II) dinitrate] | – | – | – | – | 0,8 mg/kg | 100 | – | – | 4.0 | 19.6
[Br-].[Br][Pd+].c1ccc(P(CCP(c2ccccc2)c2ccccc2)c2ccccc2)cc1.c1ccc(P(CCP(c2ccccc2)c2ccccc2)c2ccccc2)cc1 [TNO 376, Bis[1,2-bis(diphenylphosphino)ethane]bromo palladium(II) bromide] | – | – | – | – | – | – | – | – | 0.7 | 6.3
[O-][Cl+3]([O-])([O-])[O-].[O-][Cl+3]([O-])([O-])[O-].[Pd+2].c1ccc(P(CCP(c2ccccc2)c2ccccc2)c2ccccc2)cc1.c1ccc(P(CCP(c2ccccc2)c2ccccc2)c2ccccc2)cc1 [TNO 343, Bis[1,2-bis(diphenylphosphino)ethane]palladium(II) diperchlorate] | 60 | 204 % T/C | 200 | 178 | – | – | – | – | – | –
Bis[1,2-bis(diphenylphosphino)ethane] nickel(II) perchlorate [TNO 404] | – | – | 25 | 240 | – | – | – | – | – | –
Bis[1,2-bis(diphenylphosphino)ethane] dichloro rhodium(III) perchlorate [TNO 355] | 30 | 171 % T/C | 100 | 167 | 80 mg/kg | 114 | 49 | 119 | – | –
[Br-].[Br-].[Co+2].c1ccc(P(CCP(c2ccccc2)c2ccccc2)c2ccccc2)cc1.c1ccc(P(CCP(c2ccccc2)c2ccccc2)c2ccccc2)cc1 [TNO 346, Bis[1,2-bis(diphenylphosphino)ethane]bromo cobalt(II) bromide] | – | – | 100 | 167 | 200 mg/kg | 100 | – | – | – | –
[I-].[I-].[Pd+2].c1ccc(P(CCP(c2ccccc2)c2ccccc2)c2ccccc2)cc1.c1ccc(P(CCP(c2ccccc2)c2ccccc2)c2ccccc2)cc1 [TNO 342, Bis[1,2-(diphenylphosphino)ethane]diiodo palladium(II)] | – | – | 5 | 139 | – | – | – | – | – | –
Bis[cis-1,2-bis(diphenylphosphino)ethylene]palladium(II) dichloride [TNO 357] | – | – | – | – | – | – | – | – | 27.7 | 13.1
Bis[1,2-bis(diphenylphosphino)ethane]palladium(II) dichlorate [TNO 306] | 12 | 202 % T/C and 151 % T/C | 60 | 144 | 1.9 mg/kg | 100 | 3.0 | 100 | 57 | –
[Ir+3].[O-][Cl+3]([O-])([O-])[O-].[O-][O-].c1ccc(P(CCP(c2ccccc2)c2ccccc2)c2ccccc2)cc1.c1ccc(P(CCP(c2ccccc2)c2ccccc2)c2ccccc2)cc1 [TNO 413, Bis[1,2-bis(diphenylphosphino)ethane]peroxo iridium(III) perchlorate] | – | – | 200 | 170 | – | – | – | – | – | –
Bis[cis-1,2-bis(diphenylphosphino)ethylene]dichloro iron(III) tetrachloroferrate(III) [TNO 405] | – | – | 100 | 160 | – | – | – | – | – | –
Bis[1,2-bis(diphenylphosphino)ethane] iridium(I) perchlorate [TNO 344] | 20 | 150 % T/C | 200 | 167 | – | – | – | – | – | –
[Cl-].[Cl-].[Cl-].[Rh+3].c1ccc(P(CCP(c2ccccc2)c2ccccc2)c2ccccc2)cc1.c1ccc(P(CCP(c2ccccc2)c2ccccc2)c2ccccc2)cc1 [TNO 363, Bis[1,2-bis(diphenylphosphino)ethane]dichloro rhodium(III) chloride] | – | – | 50 | 133 | – | – | – | – | – | –
Bis[1,2-bis(diphenylphosphino)ethane] cobalt(II) diperchlorate [TNO 358] | 20 | 150 % T/C | 100 | 144 | 120 mg/kg | 142 | 100 | 143 | – | –
[Cl-].[Cl-].[O-][Cl+3]([O-])([O-])[O-].[Rh+3].c1ccc(P(CC[As](c2ccccc2)c2ccccc2)c2ccccc2)cc1.c1ccc(P(CC[As](c2ccccc2)c2ccccc2)c2ccccc2)cc1 [TNO 395, Bis[1-diphenylphosphino-2-diphenylarsinoethane]dichloro rhodium(III) perchlorate] | – | – | 200 | 136 | – | – | – | – | – | –
C(=CP(c1ccccc1)c1ccccc1)P(c1ccccc1)c1ccccc1.C(=CP(c1ccccc1)c1ccccc1)P(c1ccccc1)c1ccccc1.[Cl-].[Cl-].[Fe+2] [TNO 396, Bis[cis-1,2-bis(diphenylphosphino)ethylene]dichloro iron(II)] | – | – | 200 | 150 | – | – | – | – | 452 | 383
